Laboratory results taken from US6828345B2, “O-substituted 6-methyltramadol derivatives” (Gruenenthal GmbH, priority 2000, dated 2004).

Tests used:
[1] = test system: phenylquinone-induced writhing reaction in mice; assay: Phenylquinone-induced writhing test in mice; assay type: in vivo, Male NMRI mice; conditions: orally, phenylquinone i.p. 30 minutes after oral administration, writhing counted 5-20 minutes after phenylquinone; for ED50: Mus musculus, read-out: ED50 writhing inhibition
Experimental: The analgesic effectiveness of the compounds according to the invention was investigated in mice using the phenylquinone-induced writhing test as modified by I. C. Hendershot, J. Forsaith in J. Pharmacol. Exptl. Ther. 125, 237 (1959). Male NMRI mice weighing between 25 and 30 g were used for this purpose. Groups of 10 animals per substance dose received intraperitoneally 30 minutes after oral administration of a compound according to the invention, 0.3 ml per mouse of a 0.02% aqueous phenylquinone solution (phenylbenzoquinone, from Sigma, Deisenhofen; solution prepared by addition of 5% ethanol and storage in a water bath at 45° C.). The animals were then placed individually in observation cages. The number of pain-induced stretching movements (writhing reaction=contortion of the body accompanied by stretching of the rear extremities) was counted using a push-button counter 5-20 minutes after administration of the phenylquinone. The ED50 values (effective dose with 50% inhibition of the writhing reaction) were calculated with 95% level of confidence by means of regression analysis (evaluation program from Martens EDV-Service, Ekental) from the dose-dependent reduction in the writhing reaction compared to mice investigated in parallel to which only phenylquinone had been administered.

[2] = test system: tail-flick pain latency in mice; assay: Tail-flick (focussed beam) test on mice; assay type: in vivo, NMR mice; conditions: for ED50: Mus musculus
From the text: The analgesic effectiveness of the compounds according to the invention was investigated by the focussed beam (tail-flick) test in mice according to the method developed by D'Amour and Smith (J. Pharmaceutical. Exp. Ther. 72, 74 79 (1941)). NMR mice weighing between 20 and 24 g were used for this purpose. The animals were placed individually in special test cages and the base of the tail was subjected to a focused beam of light from an electric lamp (tail-flick type 55/12/10.fl, Labtec, Dr Hess). The lamp intensity was adjusted so that the time from when the lamp was switched on to the sudden withdrawal of the tail (pain latency) was 3 to 5 seconds in the case of untreated animals. Before administration of a compound according to the invention the animals were pre-tested twice within 5 minutes and the mean value of these measurements was calculated as a pre-test mean value. The pain measurements were carried out 20, 40 and 60 minutes after intravenous administration. The analgesic action was calculated as the increase in the pain latency (% MPE) according to the following formula: […]
Here T0 is the latency time before application of the substance and T1 the latency time after application of the substance, and T2 is the maximum exposure time (12 sec).
In order to determine the dose dependence the respective compound according to the invention was applied in 3 to 5 logarithmically increasing doses that included in each case the threshold dose and the maximal effect dose, and the ED50 values were determined by means of regression analysis. The ED50 calculation was carried out at the effect maximum 20 minutes after intravenous administration of the substance.

[3] = iv, 20 min, i.v., effect maximum 20 minutes after intravenous administration
[4] = i.v., effect maximum 20 minutes after intravenous administration

| SMILES | ED50 writhing inhibition [1] [mg/kg] | ED50 [2, 3] [mg/kg] | further results |
| --- | --- | --- | --- |
| COc1cccc(C2(O)C(C)CCCC2CN(C)C)c1 (stereo not drawn) [Example 5, 2-dimethylaminomethyl-1-(3-methoxyphenyl)-6-methylcyclohexanol] | – | – | ED50 [1]: 11 mg/kg; ED50 ([2]; po, orally (cell note)): 42.9 mg/kg |
| CCOc1cccc(C2(O)C(C)CCCC2CN(C)C)c1 (stereo not drawn) [Example 11, 2-dimethylaminomethyl-1-(3-ethoxyphenyl)-6-methylcyclohexanol] | 21.6 | – | – |
| CC1CCCC(CN(C)C)C1(O)c1cccc(OC2CCCC2)c1 (stereo not drawn) [Example 14, 1-(3-cyclopentyloxyphenyl)-2-dimethylaminomethyl-6-methylcyclohexanol] | – | 20 | ED50 [1]: 26.2 mg/kg |
| CC1CCCC(CN(C)C)C1(O)c1cccc(O)c1 (stereo not drawn) [Example 10, 3-(2-dimethylaminomethyl-1-hydroxy-6-methylcyclohexyl)-phenol] | 5.3 | – | ED50 tail-flick [2, 4]: 0.91 mg/kg |
| CC1CCCC(CN(C)C)C1(O)c1cccc(O)c1 (racemic) [Example 8, 3-(2-dimethylaminomethyl-1-hydroxy-6-methylcyclohexyl)-phenol] | 14.0 | – | – |
| CCOc1cccc(C2(O)C(C)CCCC2CN(C)C)c1 (racemic) [Example 2, 2-dimethylaminomethyl-1-(3-ethoxyphenyl)-6-methylcyclohexanol] | – | 11.9 | – |
| CCOc1cccc(C2(O)C(C)CCCC2CN(C)C)c1 (stereo not drawn) [Example 12, 2-dimethylaminomethyl-1-(3-ethoxyphenyl)-6-methylcyclohexanol] | 4.39 | 13.4 | – |
| C=CCOc1cccc(C2(O)C(C)CCCC2CN(C)C)c1 (racemic) [Example 4, 1-(3-allyloxyphenyl)-2-dimethylaminomethyl-6-methylcyclohexanol] | – | 20.2 | ED50 [1]: 9.38 mg/kg |
| CC1CCCC(CN(C)C)C1(O)c1cccc(O)c1 (racemic) [Example 3, 3-(2-dimethylaminomethyl-1-hydroxy-6-methyl-cyclohexyl)phenol] | 2.09 | 2.15 | – |
| C#COc1cccc(C2(O)C(C)CCCC2CN(C)C)c1 (stereo not drawn) [Example 19, 2-dimethylaminomethyl-1-(3-ethynyloxyphenyl)-6-methylcyclohexanol] | – | 14.7 | – |
| CC1CCCC(CN(C)C)C1(O)c1cccc(OCC2CCC2)c1 (stereo not drawn) [Example 16, 1-(3-cyclobutylmethoxyphenyl)-2-dimethylaminomethyl-6-methylcyclohexanol] | – | 21.5 | ED50 [1]: 32.8 mg/kg |
| COc1cccc(C2(O)C(C)CCCC2CN(C)C)c1 (racemic) [Example 1, 2-dimethylaminomethyl-1-(3-methoxyphenyl)-6-methylcyclohexanol] | – | 5.6 | – |
| COc1cccc(C2(O)C(C)CCCC2CN(C)C)c1 (stereo not drawn) [Example 6, 2-dimethylaminomethyl-1-(3-methoxyphenyl)-6-methylcyclohexanol] | 6.58 | 7.73 | – |
| CC1CCCC(CN(C)C)C1(O)c1cccc(O)c1 (stereo not drawn) [Example 9, 3-(2-dimethylaminomethyl-1-hydroxy-6-methylcyclohexyl)-phenol] | 19.8 | – | ED50 tail-flick [2, 4]: 14.7 mg/kg |
| CC1CCCC(CN(C)C)C1(O)c1cccc(OC2CCC2)c1 (stereo not drawn) [Example 21, 1-(3-cyclobutoxyphenyl)-2-dimethylaminomethyl-6-methylcyclohexanol] | – | 30 | – |
